Results reported in paper PMC4045324 (Biochemistry, 2014).

What was measured:
MtDXR W203F = MtDXR W203F (Mycobacterium tuberculosis, UniProt P9WNS1, W203F)
MtDXR W203Y = MtDXR W203Y (Mycobacterium tuberculosis, UniProt P9WNS1, W203Y)

For O=CN(O)CCCP(=O)(O)O [fosmidomycin], the “binding enthalpy more exothermic than wild type by” value (MtDXR W203F) was 2.8 kcal/mol, the “enthalpy share of total binding energy (enthalpy-driven binding)” value (MtDXR W203F) was 75% and the “ΔG°” value (MtDXR W203F; pH 7.5) was “–10.10 ± 0.05 kcal/mol”. For the same compound, the “ΔH°” value (MtDXR W203F; pH 7.5) was “–7.6 ± 0.7 kcal/mol”, the “–TΔS°” value (MtDXR W203F; pH 7.5) was “–2.5 ± 0.7 kcal/mol” and the “binding enthalpy more exothermic than wild type by” value (MtDXR W203Y) was 5.4 kcal/mol. For the same compound, the “enthalpy share of total binding energy (enthalpy-driven binding)” value (MtDXR W203Y) was 91%, the “ΔG°” value (MtDXR W203Y; pH 7.5) was “–11.26 ± 0.19 kcal/mol” and the “ΔH°” value (MtDXR W203Y; pH 7.5) was “–10.2 ± 0.3 kcal/mol”. For the same compound, the “–TΔS°” value (MtDXR W203Y; pH 7.5) was “–1.0 ± 0.4 kcal/mol”.
